Laboratory results as given in patent US11104648B2, “Pyrazole derivative” (Zhejiang Research Institute of Chemical Industry Co., Ltd., priority 2018, dated 2021).
Like-named read-outs stand apart in the source and are kept apart here.

Tests used:
Type in all cases: in vivo
[1] = test system: Eggs of Tetranychus Cinnabarinus; assay: Activity assay of eggs of Tetranychus cinnabarinus (spray method, ovicidal); settings: Tetranychus cinnabarinus, read-out: ovicidal activity; for pest or weed control at 2 µg/mL: concentration 2 mg/L
Method in brief: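 Ovicidal spray test: compound dissolved in DMF, diluted with 1‰ Tween 80 (DMF ≤10%), sprayed on eggs laid during 24 h by females on broad bean leaves. Culture at 26±2° C, 70–80% RH, 16 h photoperiod; non-hatched eggs scored as dead when blank control hatched; three repeats.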

[2] = test system: adult Tetranychus cinnabarinus; assay: Activity assay of adult Tetranychus cinnabarinus (whole-plant spray on bean seedlings); settings: 48 h, read-out: adult mite-killing activity; for pest or weed control at 1.25 µg/mL: concentration 1.25 mg/L
Method in brief: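 Whole plants sprayed after adult mite inoculation and initial census, using compound dissolved in DMF and made up with 1‰ Tween 80 water (DMF not above 10%). Mortality derived from survivor counts at 48 h after treatment. Each treatment run in triplicate.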

[3] = test system: Tetranychus cinnabarinus Nymphs; assay: Activity assay of Tetranychus cinnabarinus nymphs (spray on broad bean leaves)
Method in brief: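 Mortality, judged as no response to gentle touch, was scored 48 h after spraying Tetranychus cinnabarinus nymphs on broad bean leaves (eggs from females removed after 24 h). Test solutions: DMF-dissolved compound, ≤10% DMF, in 1‰ Tween 80; 26±2° C., 70%–80% RH, 16 h light; triplicate, blank control.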

[4] = 48 h, read-out: nymph-killing activity
[5] = concentration 5 mg/L, spray, non-incubated eggs counted as dead
[6] = 48 h, concentration 2.5 mg/L, read-out: nymph-killing activity
[7] = concentration 2.5 mg/L, 48 h, read-out: nymph-killing activity
[8] = 48 h, concentration 2 mg/L, read-out: nymph-killing activity

SMILES | pest or weed control at 5 µg/mL [1, 5] | pest or weed control at 2.5 µg/mL ([2]; concentration 2.5 mg/L) | pest or weed control at 2.5 µg/mL [3, 6] | other results
CCn1nc(C)c(Cl)c1/C(OC(C)OC(=O)CF)=C(\C#N)c1ccc(C(C)(C)C)cc1 (stereo not drawn) [Compound 337] | – | – | – | pest or weed control at 5 µg/mL [1]: ≥ 90%; pest or weed control at 2.5 µg/mL [2]: ≥ 90%; pest or weed control at 2.5 µg/mL [3, 4]: ≥ 95%
CCn1nc(C)c(Cl)c1/C(OC(C)OC(=O)C(F)(F)F)=C(\C#N)c1ccc(C(C)(C)C)cc1 (stereo not drawn) [Compound 338] | ≥ 90% | ≥ 90% | ≥ 95% | –
CCn1nc(C)c(Cl)c1/C(OC(C)OC(=O)c1ccccc1)=C(\C#N)c1ccc(C(C)(C)C)cc1 (stereo not drawn) [Compound 339] | ≥ 90% | ≥ 90% | ≥ 95% | –
CCn1nc(C)c(Cl)c1/C(OC(C)OC(=O)Cc1ccccc1)=C(\C#N)c1ccc(C(C)(C)C)cc1 (stereo not drawn) [Compound 340] | ≥ 90% | ≥ 90% | – | pest or weed control at 2.5 µg/mL [3, 7]: ≥ 95%
CCn1nc(C)c(Cl)c1/C(OC(C)OC(=O)C(C)(C)CC)=C(\C#N)c1ccc(C(C)(C)C)cc1 (stereo not drawn) [Compound 341] | ≥ 90% | ≥ 90% | ≥ 95% | –
C=CC(=O)OC(C)O/C(=C(/C#N)c1ccc(C(C)(C)C)cc1)c1c(Cl)c(C)nn1CC (stereo not drawn) [Compound 342] | ≥ 90% | ≥ 90% | ≥ 95% | –
CCn1nc(C)c(C)c1/C(OCOC(C)=O)=C(\C#N)c1ccc(C(C)(C)C)cc1 [Compound 376] | ≥ 90% | ≥ 90% | ≥ 95% | –
CCC(=O)OCO/C(=C(/C#N)c1ccc(C(C)(C)C)cc1)c1c(C)c(C)nn1CC [Compound 377] | ≥ 90% | ≥ 90% | ≥ 95% | –
CCCC(=O)OCO/C(=C(/C#N)c1ccc(C(C)(C)C)cc1)c1c(C)c(C)nn1CC [Compound 378] | ≥ 90% | ≥ 90% | ≥ 95% | –
CCn1nc(C)c(C)c1/C(OCOC(=O)C(C)C)=C(\C#N)c1ccc(C(C)(C)C)cc1 [Compound 379] | ≥ 90% | ≥ 90% | ≥ 95% | –
CCn1nc(C)c(C)c1/C(OCOC(=O)C(C)(C)C)=C(\C#N)c1ccc(C(C)(C)C)cc1 [Compound 380] | ≥ 90% | ≥ 90% | ≥ 95% | –
CCCCC(=O)OCO/C(=C(/C#N)c1ccc(C(C)(C)C)cc1)c1c(C)c(C)nn1CC [Compound 381] | ≥ 90% | ≥ 90% | ≥ 95% | –
CCn1nc(C)c(C)c1/C(OCOC(=O)CC(C)C)=C(\C#N)c1ccc(C(C)(C)C)cc1 [Compound 382] | ≥ 90% | ≥ 90% | ≥ 95% | –
CCn1nc(C)c(C)c1/C(OCOC(=O)COC)=C(\C#N)c1ccc(C(C)(C)C)cc1 [Compound 383] | ≥ 90% | ≥ 90% | ≥ 95% | –
CCn1nc(C)c(C)c1/C(OCOC(=O)C1CC1)=C(\C#N)c1ccc(C(C)(C)C)cc1 [Compound 384] | ≥ 90% | ≥ 90% | ≥ 95% | –
CCn1nc(C)c(C)c1/C(OCOC(=O)CSC)=C(\C#N)c1ccc(C(C)(C)C)cc1 [Compound 385] | ≥ 90% | ≥ 90% | ≥ 95% | –
CCn1nc(C)c(C)c1/C(OCOC(=O)C1CCCCC1)=C(\C#N)c1ccc(C(C)(C)C)cc1 [Compound 386] | ≥ 90% | ≥ 90% | ≥ 95% | –
CCn1nc(C)c(C)c1/C(OCOC(=O)CF)=C(\C#N)c1ccc(C(C)(C)C)cc1 [Compound 387] | – | – | – | pest or weed control at 5 µg/mL [1]: ≥ 90%; pest or weed control at 2.5 µg/mL [2]: ≥ 90%; pest or weed control at 2.5 µg/mL [3, 4]: ≥ 95%
CCn1nc(C)c(C)c1/C(OCOC(=O)C(F)(F)F)=C(\C#N)c1ccc(C(C)(C)C)cc1 [Compound 388] | ≥ 90% | ≥ 90% | ≥ 95% | –
CCn1nc(C)c(C)c1/C(OCOC(=O)c1ccccc1)=C(\C#N)c1ccc(C(C)(C)C)cc1 [Compound 389] | ≥ 90% | ≥ 90% | ≥ 95% | –

SMILES | pest or weed control at 5 µg/mL [1, 5] | pest or weed control at 2.5 µg/mL ([2]; concentration 2.5 mg/L) | pest or weed control at 2.5 µg/mL [3, 6] | other results
CCn1nc(C)c(C)c1/C(OCOC(=O)Cc1ccccc1)=C(\C#N)c1ccc(C(C)(C)C)cc1 [Compound 390] | ≥ 90% | ≥ 90% | – | pest or weed control at 2.5 µg/mL [3, 7]: ≥ 95%
CCn1nc(C)c(C)c1/C(OCOC(=O)C(C)(C)CC)=C(\C#N)c1ccc(C(C)(C)C)cc1 [Compound 391] | ≥ 90% | ≥ 90% | ≥ 95% | –
C=CC(=O)OCO/C(=C(/C#N)c1ccc(C(C)(C)C)cc1)c1c(C)c(C)nn1CC [Compound 392] | ≥ 90% | ≥ 90% | ≥ 95% | –
CCn1nc(C)c(C)c1/C(OC(C)OC(C)=O)=C(\C#N)c1ccc(C(C)(C)C)cc1 (stereo not drawn) [Compound 401] | ≥ 90% | ≥ 90% | ≥ 95% | pest or weed control at 2 µg/mL ([1]; spray): ≥ 90%; pest or weed control at 1.25 µg/mL [2]: ≥ 90%; pest or weed control at 2 µg/mL [3, 8]: ≥ 90%
CCC(=O)OC(C)O/C(=C(/C#N)c1ccc(C(C)(C)C)cc1)c1c(C)c(C)nn1CC (stereo not drawn) [Compound 402] | ≥ 90% | ≥ 90% | ≥ 95% | pest or weed control at 2 µg/mL ([1]; spray): ≥ 90%; pest or weed control at 1.25 µg/mL [2]: ≥ 90%; pest or weed control at 2 µg/mL [3, 8]: ≥ 90%
CCCC(=O)OC(C)O/C(=C(/C#N)c1ccc(C(C)(C)C)cc1)c1c(C)c(C)nn1CC (stereo not drawn) [Compound 403] | ≥ 90% | ≥ 90% | ≥ 95% | –
CCn1nc(C)c(C)c1/C(OC(C)OC(=O)C(C)C)=C(\C#N)c1ccc(C(C)(C)C)cc1 (stereo not drawn) [Compound 404] | ≥ 90% | ≥ 90% | ≥ 95% | –
CCn1nc(C)c(C)c1/C(OC(C)OC(=O)C(C)(C)C)=C(\C#N)c1ccc(C(C)(C)C)cc1 (stereo not drawn) [Compound 405] | ≥ 90% | ≥ 90% | ≥ 95% | pest or weed control at 2 µg/mL ([1]; spray): ≥ 90%; pest or weed control at 1.25 µg/mL [2]: ≥ 90%; pest or weed control at 2 µg/mL [3, 8]: ≥ 90%
CCCCC(=O)OC(C)O/C(=C(/C#N)c1ccc(C(C)(C)C)cc1)c1c(C)c(C)nn1CC (stereo not drawn) [Compound 406] | ≥ 90% | ≥ 90% | ≥ 95% | –
CCn1nc(C)c(C)c1/C(OC(C)OC(=O)CC(C)C)=C(\C#N)c1ccc(C(C)(C)C)cc1 (stereo not drawn) [Compound 407] | ≥ 90% | ≥ 90% | ≥ 95% | –
CCn1nc(C)c(C)c1/C(OC(C)OC(=O)COC)=C(\C#N)c1ccc(C(C)(C)C)cc1 (stereo not drawn) [Compound 408] | ≥ 90% | ≥ 90% | ≥ 95% | –
CCn1nc(C)c(C)c1/C(OC(C)OC(=O)C1CC1)=C(\C#N)c1ccc(C(C)(C)C)cc1 (stereo not drawn) [Compound 409] | ≥ 90% | ≥ 90% | ≥ 95% | pest or weed control at 2 µg/mL ([1]; spray): ≥ 90%; pest or weed control at 1.25 µg/mL [2]: ≥ 90%; pest or weed control at 2 µg/mL [3, 8]: ≥ 90%
CCn1nc(C)c(C)c1/C(OC(C)OC(=O)CSC)=C(\C#N)c1ccc(C(C)(C)C)cc1 (stereo not drawn) [Compound 410] | ≥ 90% | ≥ 90% | ≥ 95% | –
CCn1nc(C)c(C)c1/C(OC(C)OC(=O)C1CCCCC1)=C(\C#N)c1ccc(C(C)(C)C)cc1 (stereo not drawn) [Compound 411] | ≥ 90% | ≥ 90% | ≥ 95% | –
CCn1nc(C)c(C)c1/C(OC(C)OC(=O)CF)=C(\C#N)c1ccc(C(C)(C)C)cc1 (stereo not drawn) [Compound 412] | – | – | – | pest or weed control at 5 µg/mL [1]: ≥ 90%; pest or weed control at 2.5 µg/mL [2]: ≥ 90%; pest or weed control at 2.5 µg/mL [3, 4]: ≥ 95%
CCn1nc(C)c(C)c1/C(OC(C)OC(=O)C(F)(F)F)=C(\C#N)c1ccc(C(C)(C)C)cc1 (stereo not drawn) [Compound 413] | ≥ 90% | ≥ 90% | ≥ 95% | –
CCn1nc(C)c(C)c1/C(OC(C)OC(=O)c1ccccc1)=C(\C#N)c1ccc(C(C)(C)C)cc1 (stereo not drawn) [Compound 414] | ≥ 90% | ≥ 90% | ≥ 95% | –
CCn1nc(C)c(C)c1/C(OC(C)OC(=O)Cc1ccccc1)=C(\C#N)c1ccc(C(C)(C)C)cc1 (stereo not drawn) [Compound 415] | ≥ 90% | ≥ 90% | – | pest or weed control at 2.5 µg/mL [3, 7]: ≥ 95%
CCn1nc(C)c(C)c1/C(OC(C)OC(=O)C(C)(C)CC)=C(\C#N)c1ccc(C(C)(C)C)cc1 (stereo not drawn) [Compound 416] | ≥ 90% | ≥ 90% | ≥ 95% | –
